Drawing on PubChem BioAssay (NCI), this text covers GI50 and TGI for eight compounds.

Among the test systems are M14 melanoma; SF-295 CNS; BT-549 breast; TK-10 renal; CAKI-1 renal; MCF7 breast; PC-3 prostate; MOLT-4 leukemia; NCI-H226 lung; RPMI-8226 leukemia.
Common to all, as to assay: DTP human tumour cell line panel, 48 h

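Step 1: Grow cells in 96-well plates. Step 2: Expose to compound for 48 hours at 5 concentrations. Step 3: Interpolate endpoints linearly; if unreached, use highest concentration. At the GI50, growth is halved. Definition used: TGI = concentration required for complete inhibition of growth.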

As for `CSC1=Nc2c(c(C)c(-c3ccccc3)n2CCCN2CCCCC2)C2=NC(=O)C[C@H](C)N12`, the GI50 (commonly the concentration giving 50% growth inhibition) with M14 melanoma is 3.68 µM; in the test on SF-295 CNS it was 2.54 µM; with BT-549 breast, 2.83 µM; in the test with TK-10 renal it was 3.98 µM; with CAKI-1 renal it was 12.1 µM; in the test on MCF7 breast, 2.72 µM. For the same compound, the GI50 in the test with PC-3 prostate is 2.01 µM; in the test with MOLT-4 leukemia, 4.38 µM; with NCI-H226 lung it was 4.5 µM; with RPMI-8226 leukemia it was 0.505 µM. For the same compound, the TGI – broadly, the concentration giving total growth inhibition – in the test on M14 melanoma is 16.1 µM; in the test with SF-295 CNS, 9.19 µM; in the test with BT-549 breast it was 13.7 µM; with TK-10 renal, above 30.6 µM; in the test on CAKI-1 renal it was 44.5 µM; with MCF7 breast, 11.3 µM. Also, the TGI in the test on PC-3 prostate is 10.1 µM; with MOLT-4 leukemia, above 22.5 µM; with NCI-H226 lung, above 79.7 µM; with RPMI-8226 leukemia it was 2.25 µM.

Consider `CCCCCCCC/C=C/CCCCCCCC1=NC(C)(C)CN1CC(C)O` (centres undefined), for which the GI50 in the test on M14 melanoma is 1.79 µM; in the test on SF-295 CNS, 1.82 µM; in the test with BT-549 breast, 2.84 µM; with TK-10 renal, 2.73 µM; in the test on CAKI-1 renal it was 1.53 µM; in the test on MCF7 breast, 1.85 µM. Also, the GI50 with PC-3 prostate was 2.26 µM; in the test on MOLT-4 leukemia, 2.05 µM; in the test with NCI-H226 lung, 6.25 µM; in the test on RPMI-8226 leukemia it was 2.28 µM. Moreover, the TGI with M14 melanoma came out at 3.35 µM; with SF-295 CNS, 3.5 µM; with BT-549 breast it was 15.7 µM; with TK-10 renal it was 7.49 µM; in the test on CAKI-1 renal, 3 µM; in the test with MCF7 breast, 3.62 µM. Also, the TGI in the test with PC-3 prostate was determined as 8.08 µM; in the test with MOLT-4 leukemia, 4.28 µM; in the test with NCI-H226 lung, 23.7 µM; with RPMI-8226 leukemia, 5.91 µM.

With `COc1c(O)c(OC)c2oc(-c3ccc(O)c(O)c3)c(OC)c(=O)c2c1O`, the total growth inhibition concentration (TGI) in the test on M14 melanoma is 50.7 µM; in the test with SF-295 CNS it was above 100 µM; with BT-549 breast, above 100 µM; with TK-10 renal it was 99.5 µM; in the test on CAKI-1 renal it was above 100 µM; in the test on MCF7 breast it was 34 µM. In addition, the concentration for total growth inhibition (TGI) with PC-3 prostate, in the test on MOLT-4 leukemia, with NCI-H226 lung and in the test on RPMI-8226 leukemia was above 100 µM each time.

With `COc1ccc(N=Cc2c(O)ccc3c2oc2cc(Cl)c(O)c(Cl)c23)cc1`, the GI50 is 20.9 µM in the test on M14 melanoma; 3.39 µM in the test on SF-295 CNS; 13.4 µM in the test on BT-549 breast; 20.3 µM in the test with TK-10 renal; 4.75 µM with CAKI-1 renal; 7.7 µM with MCF7 breast. Further, the GI50 in the test with PC-3 prostate is 14.8 µM; in the test with MOLT-4 leukemia, 4.84 µM; with NCI-H226 lung, 13.7 µM; in the test with RPMI-8226 leukemia, 4.83 µM. Moreover, the TGI with M14 melanoma is 61.2 µM; with SF-295 CNS it was 17.8 µM; in the test with BT-549 breast, above 100 µM; in the test on TK-10 renal, 48.3 µM; with CAKI-1 renal, 28.1 µM; with MCF7 breast it was 44.1 µM. The concentration for total growth inhibition (TGI) in the test on PC-3 prostate was determined as 57.3 µM; in the test on MOLT-4 leukemia it was 30 µM; in the test with NCI-H226 lung it was 41.7 µM; in the test with RPMI-8226 leukemia, 30.2 µM.

Regarding `Cc1cccc(-c2[nH]ncc2-c2ccc3ncccc3n2)n1`, the GI50 with M14 melanoma is 10.8 µM; in the test with SF-295 CNS, 13.7 µM; in the test with BT-549 breast, above 25 µM; in the test on TK-10 renal it was 13 µM; in the test on CAKI-1 renal it was above 19 µM; in the test with MCF7 breast, 8.48 µM. For the same compound, the GI50 with PC-3 prostate was above 17.3 µM; in the test on MOLT-4 leukemia, 14.2 µM; in the test with NCI-H226 lung, 9.92 µM; in the test with RPMI-8226 leukemia, above 15.1 µM. In addition, the total growth inhibition concentration (TGI) in the test on M14 melanoma, in the test with SF-295 CNS, in the test on BT-549 breast, in the test on TK-10 renal, with CAKI-1 renal and with MCF7 breast was above 25 µM each time. Also, the TGI in the test on PC-3 prostate, with MOLT-4 leukemia, in the test on NCI-H226 lung and with RPMI-8226 leukemia was above 25 µM in each case.

With `Nc1ccccc1NC(=O)c1ccc(CNc2nccc(-c3cccnc3)n2)cc1`, the GI50 with M14 melanoma is 1.03 µM; with SF-295 CNS it was 0.722 µM; with BT-549 breast, 1.9 µM; in the test on TK-10 renal, 0.304 µM; in the test with CAKI-1 renal it was 0.323 µM; in the test on MCF7 breast, 0.716 µM. Also, the GI50 with PC-3 prostate is 0.928 µM; with MOLT-4 leukemia, 0.643 µM; in the test with NCI-H226 lung, 1.79 µM; in the test with RPMI-8226 leukemia, 0.5 µM. The concentration for total growth inhibition (TGI) was 4.18 µM in the test on M14 melanoma; above 100 µM with SF-295 CNS; 14.8 µM in the test with BT-549 breast; above 27.2 µM in the test on TK-10 renal; above 43.3 µM with MCF7 breast; above 100 µM in the test with PC-3 prostate. Moreover, the TGI in the test on MOLT-4 leukemia was above 23.2 µM; with NCI-H226 lung, 23.6 µM; with RPMI-8226 leukemia, 14.6 µM.

As to `CN(C)c1ccc(/C=C/c2ccnc3c(O)cccc23)cc1`, the concentration for 50% growth inhibition (GI50) in the test with M14 melanoma was 0.304 µM; in the test on SF-295 CNS, 1.06 µM; with BT-549 breast, 1.01 µM; in the test with TK-10 renal, 1.68 µM; in the test with CAKI-1 renal, 0.401 µM; in the test on MCF7 breast, 0.371 µM. The 50% growth inhibitory concentration (GI50) with PC-3 prostate is 0.383 µM; in the test on MOLT-4 leukemia it was 0.357 µM; in the test on NCI-H226 lung, 2.31 µM; in the test with RPMI-8226 leukemia, 0.482 µM. In addition, the TGI in the test with M14 melanoma was 1.58 µM; with SF-295 CNS, above 100 µM; in the test on BT-549 breast it was above 100 µM; in the test with TK-10 renal it was above 100 µM; in the test on CAKI-1 renal it was above 74.4 µM; in the test with MCF7 breast, above 100 µM. The total growth inhibition concentration (TGI) with PC-3 prostate was above 100 µM; with MOLT-4 leukemia, above 100 µM; in the test on NCI-H226 lung it was above 26.8 µM; in the test on RPMI-8226 leukemia, above 100 µM.

With `C=C(C)[C@@H]1CC[C@]2(COCCC#N)CC[C@]3(C)[C@H](CC[C@@H]4[C@@](C)(CCCNCCC#N)[C@H](C(=C)C)CC[C@]43C)[C@@H]12`, the GI50 is 14.7 µM in the test with M14 melanoma; above 50 µM in the test on SF-295 CNS; 24.3 µM with BT-549 breast; 16 µM in the test on TK-10 renal; 7.13 µM with CAKI-1 renal; 9.9 µM in the test on MCF7 breast. The GI50 with PC-3 prostate is 10.3 µM; with MOLT-4 leukemia, 7.72 µM; with NCI-H226 lung, 8.88 µM; in the test on RPMI-8226 leukemia, 10.7 µM. The total growth inhibition concentration (TGI) in the test on M14 melanoma was above 50 µM; with SF-295 CNS it was above 50 µM; in the test on BT-549 breast it was above 50 µM; in the test on TK-10 renal it was above 50 µM; in the test on CAKI-1 renal, 15.6 µM; in the test with MCF7 breast, 48.5 µM. The concentration for total growth inhibition (TGI) is above 50 µM in the test with PC-3 prostate, 25 µM in the test with MOLT-4 leukemia, 18.5 µM with NCI-H226 lung and 31.4 µM in the test on RPMI-8226 leukemia.
